Values after ≈ are worked out from the molar mass of the structure shown.
The compounds below were run on Staphylococcus aureus (assay: The compound was tested for minimum inhibitory concentration in Staphylococcus aureus Oxford penicillin sensitive Staphylococcus aureus).
Assay type: functional
`CC(C)(O/N=C(\C(=O)N[C@@H]1C(=O)N2C(C(=O)O)=C(CCc3ccc(O)c(O)c3)CSC12)c1csc(N)n1)C(=O)O` (some centres undefined) gave an MIC of 8 µg/mL (≈ 13.5 µM).
`CC(C)(O/N=C(\C(=O)N[C@@H]1C(=O)N2C(C(=O)O)=C(CCNC(=O)CNC(=O)c3cc(O)c(O)c(Br)c3)CSC12)c1csc(N)n1)C(=O)O` (some centres undefined) showed an MIC of 8 µg/mL (≈ 10.4 µM).

What follows are compounds tested on Staphylococcus aureus (assay: The compound was tested for minimum inhibitory concentration in Staphylococcus aureus,147N penicillin sensitive Staphylococcus aureus).
Assay type: functional
`CC(C)(O/N=C(\C(=O)N[C@@H]1C(=O)N2C(C(=O)O)=C(CCc3ccc(O)c(O)c3)CSC12)c1csc(N)n1)C(=O)O` (some centres undefined) was tested, and the MIC was 16 µg/mL (≈ 27 µM).
With `CC(C)(O/N=C(\C(=O)N[C@@H]1C(=O)N2C(C(=O)O)=C(CCNC(=O)CNC(=O)c3cc(O)c(O)c(Br)c3)CSC12)c1csc(N)n1)C(=O)O` (some centres undefined) the MIC was 16 µg/mL (≈ 20.8 µM).

What follows are compounds tested on Citrobacter freundii (assay: microbe, parasite or virus in culture).
Description: Minimum inhibitory concentration in Citrobacter freundii, DR 382031 constitutive depressed type 1
Work on `CC(C)(O/N=C(\C(=O)N[C@@H]1C(=O)N2C(C(=O)O)=C(CCc3ccc(O)c(O)c3)CSC12)c1csc(N)n1)C(=O)O` (some centres undefined) yielded an MIC of 16 µg/mL (≈ 27 µM).
For `CC(C)(O/N=C(\C(=O)N[C@@H]1C(=O)N2C(C(=O)O)=C(CCNC(=O)CNC(=O)c3cc(O)c(O)c(Br)c3)CSC12)c1csc(N)n1)C(=O)O` (some centres undefined), the MIC was 8 µg/mL (≈ 10.4 µM).

Tested on: Citrobacter freundii
Assay: microbe, parasite or virus in culture
Remark: another data set of the same source
Description: Minimum inhibitory concentration in Citrobacter freundii, I+382010 inducible type 1 lactamase producer
With `CC(C)(O/N=C(\C(=O)N[C@@H]1C(=O)N2C(C(=O)O)=C(CCc3ccc(O)c(O)c3)CSC12)c1csc(N)n1)C(=O)O` (some centres undefined) the MIC was 0.25 µg/mL (≈ 0.423 µM).
For `CC(C)(O/N=C(\C(=O)N[C@@H]1C(=O)N2C(C(=O)O)=C(CCNC(=O)CNC(=O)c3cc(O)c(O)c(Br)c3)CSC12)c1csc(N)n1)C(=O)O` (some centres undefined), the MIC was 0.015 µg/mL (≈ 0.0195 µM).

What follows are compounds tested on Enterobacter cloacae (assay: microbe, parasite or virus in culture).
Description: Minimum inhibitory concentration in Enterobacter cloacae, DR 401108 constitutive depressed type 1 lactamase producer
`CC(C)(O/N=C(\C(=O)N[C@@H]1C(=O)N2C(C(=O)O)=C(CCc3ccc(O)c(O)c3)CSC12)c1csc(N)n1)C(=O)O` (some centres undefined) gave an MIC of 32 µg/mL (≈ 54.1 µM).
`CC(C)(O/N=C(\C(=O)N[C@@H]1C(=O)N2C(C(=O)O)=C(CCNC(=O)CNC(=O)c3cc(O)c(O)c(Br)c3)CSC12)c1csc(N)n1)C(=O)O` (some centres undefined) was tested, and the MIC was > 32 µg/mL.

What follows are compounds tested on Escherichia coli (assay: microbe, parasite or virus in culture).
Description: In vitro minimum inhibitory concentration against Escherichia coli (DC0 parent organism).
For `CC(C)(O/N=C(\C(=O)N[C@@H]1C(=O)N2C(C(=O)O)=C(CCc3ccc(O)c(O)c3)CSC12)c1csc(N)n1)C(=O)O` (some centres undefined), the MIC was 0.125 µg/mL (≈ 0.211 µM).
`CC(C)(O/N=C(\C(=O)N[C@@H]1C(=O)N2C(C(=O)O)=C(CCNC(=O)CNC(=O)c3cc(O)c(O)c(Br)c3)CSC12)c1csc(N)n1)C(=O)O` (some centres undefined) was tested, and the MIC was 0.015 µg/mL (≈ 0.0195 µM).

Tested on: Enterobacter cloacae
Assay: microbe, parasite or virus in culture
Remark: another data set of the same source
Description: Minimum inhibitory concentration in Enterobacter cloacae, P99+ constitutive depressed type 1 lactamase producer
Compound `CC(C)(O/N=C(\C(=O)N[C@@H]1C(=O)N2C(C(=O)O)=C(CCc3ccc(O)c(O)c3)CSC12)c1csc(N)n1)C(=O)O` (some centres undefined) has an MIC of 32 µg/mL (≈ 54.1 µM).
Compound `CC(C)(O/N=C(\C(=O)N[C@@H]1C(=O)N2C(C(=O)O)=C(CCNC(=O)CNC(=O)c3cc(O)c(O)c(Br)c3)CSC12)c1csc(N)n1)C(=O)O` (some centres undefined) has an MIC of 8 µg/mL (≈ 10.4 µM).

Tested on: Enterobacter cloacae
Assay: microbe, parasite or virus in culture
Remark: another data set of the same source
Description: Minimum inhibitory concentration in Enterobacter cloacae, I+401029 inducible type 1 lactamase producer
`CC(C)(O/N=C(\C(=O)N[C@@H]1C(=O)N2C(C(=O)O)=C(CCc3ccc(O)c(O)c3)CSC12)c1csc(N)n1)C(=O)O` (some centres undefined) showed an MIC of 0.5 µg/mL (≈ 0.845 µM).
For `CC(C)(O/N=C(\C(=O)N[C@@H]1C(=O)N2C(C(=O)O)=C(CCNC(=O)CNC(=O)c3cc(O)c(O)c(Br)c3)CSC12)c1csc(N)n1)C(=O)O` (some centres undefined), the MIC was 0.06 µg/mL (≈ 0.0779 µM).

Tested on: Enterobacter cloacae
Assay: microbe, parasite or virus in culture
Remark: another data set of the same source
Description: Minimum inhibitory concentration in Enterobacter cloacae, P99- inducible type 1 lactamase producer
`CC(C)(O/N=C(\C(=O)N[C@@H]1C(=O)N2C(C(=O)O)=C(CCc3ccc(O)c(O)c3)CSC12)c1csc(N)n1)C(=O)O` (some centres undefined) was tested, and the MIC was 4 µg/mL (≈ 6.76 µM).
`CC(C)(O/N=C(\C(=O)N[C@@H]1C(=O)N2C(C(=O)O)=C(CCNC(=O)CNC(=O)c3cc(O)c(O)c(Br)c3)CSC12)c1csc(N)n1)C(=O)O` (some centres undefined) gave an MIC of 0.06 µg/mL (≈ 0.0779 µM).

Tested on: Escherichia coli
Assay: microbe, parasite or virus in culture
Remark: another data set of the same source
Description: In vitro minimum inhibitory concentration against Escherichia coli (DC2 permeability mutant).
`CC(C)(O/N=C(\C(=O)N[C@@H]1C(=O)N2C(C(=O)O)=C(CCc3ccc(O)c(O)c3)CSC12)c1csc(N)n1)C(=O)O` (some centres undefined) showed an MIC of 0.03 µg/mL (≈ 0.0507 µM).
For `CC(C)(O/N=C(\C(=O)N[C@@H]1C(=O)N2C(C(=O)O)=C(CCNC(=O)CNC(=O)c3cc(O)c(O)c(Br)c3)CSC12)c1csc(N)n1)C(=O)O` (some centres undefined), the MIC was 0.015 µg/mL (≈ 0.0195 µM).

The compounds below were run on Pseudomonas aeruginosa (assay: microbe, parasite or virus in culture).
Description: Minimum inhibitory concentration in Pseudomonas aeruginosa, 18S inducible type 1 lactamase producer
For `CC(C)(O/N=C(\C(=O)N[C@@H]1C(=O)N2C(C(=O)O)=C(CCc3ccc(O)c(O)c3)CSC12)c1csc(N)n1)C(=O)O` (some centres undefined), the MIC was 0.03 µg/mL (≈ 0.0507 µM).
`CC(C)(O/N=C(\C(=O)N[C@@H]1C(=O)N2C(C(=O)O)=C(CCNC(=O)CNC(=O)c3cc(O)c(O)c(Br)c3)CSC12)c1csc(N)n1)C(=O)O` (some centres undefined) was tested, and the MIC was 0.008 µg/mL (≈ 0.0104 µM).

Tested on: Pseudomonas aeruginosa
Assay: microbe, parasite or virus in culture
Remark: another data set of the same source
Description: In vitro minimum inhibitory concentration against Pseudomonas aeruginosa (PU21).
For `CC(C)(O/N=C(\C(=O)N[C@@H]1C(=O)N2C(C(=O)O)=C(CCc3ccc(O)c(O)c3)CSC12)c1csc(N)n1)C(=O)O` (some centres undefined), the MIC was 0.25 µg/mL (≈ 0.423 µM).
`CC(C)(O/N=C(\C(=O)N[C@@H]1C(=O)N2C(C(=O)O)=C(CCNC(=O)CNC(=O)c3cc(O)c(O)c(Br)c3)CSC12)c1csc(N)n1)C(=O)O` (some centres undefined) was tested, and the MIC was 0.015 µg/mL (≈ 0.0195 µM).

Tested on: Pseudomonas aeruginosa
Assay: microbe, parasite or virus in culture
Remark: another data set of the same source
Description: Minimum inhibitory concentration in Pseudomonas aeruginosa, 18SH constitutive depressed type 1 lactamase producer
`CC(C)(O/N=C(\C(=O)N[C@@H]1C(=O)N2C(C(=O)O)=C(CCc3ccc(O)c(O)c3)CSC12)c1csc(N)n1)C(=O)O` (some centres undefined) showed an MIC of 0.125 µg/mL (≈ 0.211 µM).
With `CC(C)(O/N=C(\C(=O)N[C@@H]1C(=O)N2C(C(=O)O)=C(CCNC(=O)CNC(=O)c3cc(O)c(O)c(Br)c3)CSC12)c1csc(N)n1)C(=O)O` (some centres undefined) the MIC was 0.5 µg/mL (≈ 0.649 µM).

Tested on: Pseudomonas aeruginosa
Assay: microbe, parasite or virus in culture
Remark: another data set of the same source
Description: Minimum inhibitory concentration in Pseudomonas aeruginosa,799WT parent organism
Work on `CC(C)(O/N=C(\C(=O)N[C@@H]1C(=O)N2C(C(=O)O)=C(CCc3ccc(O)c(O)c3)CSC12)c1csc(N)n1)C(=O)O` (some centres undefined) yielded an MIC of 0.06 µg/mL (≈ 0.101 µM).
In the case of `CC(C)(O/N=C(\C(=O)N[C@@H]1C(=O)N2C(C(=O)O)=C(CCNC(=O)CNC(=O)c3cc(O)c(O)c(Br)c3)CSC12)c1csc(N)n1)C(=O)O` (some centres undefined), the MIC is reported as 0.008 µg/mL (≈ 0.0104 µM).

What follows are compounds tested on Providencia stuartii (assay: microbe, parasite or virus in culture).
Description: Minimum inhibitory concentration in Pseudomonas stuartii, DR 442049 constitutive depressed type 1 lactamase producer
Work on `CC(C)(O/N=C(\C(=O)N[C@@H]1C(=O)N2C(C(=O)O)=C(CCc3ccc(O)c(O)c3)CSC12)c1csc(N)n1)C(=O)O` (some centres undefined) yielded an MIC of 8 µg/mL (≈ 13.5 µM).
`CC(C)(O/N=C(\C(=O)N[C@@H]1C(=O)N2C(C(=O)O)=C(CCNC(=O)CNC(=O)c3cc(O)c(O)c(Br)c3)CSC12)c1csc(N)n1)C(=O)O` (some centres undefined) gave an MIC of 4 µg/mL (≈ 5.19 µM).

Tested on: Providencia stuartii
Assay: microbe, parasite or virus in culture
Remark: another data set of the same source
Description: Minimum inhibitory concentration in Pseudomonas stuartii, I+442019 inducible type 1 lactamase producer
Compound `CC(C)(O/N=C(\C(=O)N[C@@H]1C(=O)N2C(C(=O)O)=C(CCc3ccc(O)c(O)c3)CSC12)c1csc(N)n1)C(=O)O` (some centres undefined) has an MIC of 2 µg/mL (≈ 3.38 µM).
Compound `CC(C)(O/N=C(\C(=O)N[C@@H]1C(=O)N2C(C(=O)O)=C(CCNC(=O)CNC(=O)c3cc(O)c(O)c(Br)c3)CSC12)c1csc(N)n1)C(=O)O` (some centres undefined) has an MIC of 0.125 µg/mL (≈ 0.162 µM).

Tested on: Pseudomonas aeruginosa
Assay: microbe, parasite or virus in culture
Remark: another data set of the same source
Description: Minimum inhibitory concentration in Pseudomonas aeruginosa,799/61 permeability mutant
`CC(C)(O/N=C(\C(=O)N[C@@H]1C(=O)N2C(C(=O)O)=C(CCc3ccc(O)c(O)c3)CSC12)c1csc(N)n1)C(=O)O` (some centres undefined) was tested, and the MIC was 0.125 µg/mL (≈ 0.211 µM).
`CC(C)(O/N=C(\C(=O)N[C@@H]1C(=O)N2C(C(=O)O)=C(CCNC(=O)CNC(=O)c3cc(O)c(O)c(Br)c3)CSC12)c1csc(N)n1)C(=O)O` (some centres undefined) gave an MIC of 0.008 µg/mL (≈ 0.0104 µM).

Reference: ChEMBL document CHEMBL1126299, “Synthesis and structure-activity relationships of cephalosporins with C-3' catechol-containing residues” (J Med Chem, 1992)
